This note sets out measurements from patent publication EP4692072A1, “PHOTOCHROMIC COMPOUND, PROPARGYL ALCOHOL COMPOUND, CURABLE COMPOSITION, OPTICAL ARTICLE, LENS, AND SPECTACLES” (TOKUYAMA CORPORATION, priority 2023, dated 2024).

Assay type in all cases: physicochemical
Data set [1] is described as follows: Accelerated deterioration (xenon weather meter X25, 120 hours) of photochromic laminate prepared by coating method. The following applies: 0.25 mmol per 100 g monomers, A120/A0×100 after 120 hours xenon weather meter. From the text:
First, the photochromic compound obtained in Example 1, a photoinitiator, and a polymerizable compound were mixed to obtain a curable composition.
Polyethylene glycol dimethacrylate (average molecular weight: 736): 42 parts by mass • Polyethylene glycol dimethacrylate (average molecular weight: 536): 12 parts by mass • Trimethylolpropane trimethacrylate: 38 parts by mass γ-methacryloyloxypropyl trimethoxysilane: 2 parts by mass Glycidyl methacrylate: 1 part by mass
Note that the photochromic compound was added to the curable composition so that the amount of the photochromic compound was 0.25 mmol based on 100 g of the total amount of the radical-polymerizable monomers.
Phenylbis(2,4,6-trimethylbenzoyl)phosphine oxide (photoinitiator: Omnirad 819): 0.3 parts by mass Ethylene bis(oxyethylene) bis[3-(5-tert-butyl-4-hydroxy-m-tolyl)propionate] (stabilizer, Irganox 245): 1 part by mass Bis(1,2,2,6,6-pentamethyl-4-piperidyl) sebacate: 3 parts by mass Leveling agent (L7001) manufactured by Dow Corning Toray Co.,Ltd.: 0.1 part by mass
First, a thiourethane-based plastic lens having a central thickness of 2 mm and a refractive index of 1.60 was prepared as the optical substrate. Note that this thiourethane-based plastic lens was pre-treated by alkaline etching with a 10% sodium hydroxide aqueous solution at 50°C for 5 minutes, followed by sufficient washing with distilled water.
A surface of the above-described plastic lens was coated with a moisture-curable primer (product name: TR-SC-P, manufactured by Tokuyama Corporation) at a rotation frequency of 70 rpm for 15 seconds, followed by 1000 rpm for 10 seconds, using a spin coater (1H-DX2, manufactured by MIKASA CO., LTD), Subsequently, about 2 g of the photochromic curable composition obtained above was spin-coated at a rotation frequency of 60 rpm for 40 seconds, followed by 600 rpm for 10 to 20 seconds, to form a photochromic coating layer with a film thickness of 40 µm.
The lens with the surface coated with the photochromic curable composition (photochromic coating layer) was irradiated with light using a metal halide lamp with an output power of 200 mW/cm^2 in a nitrogen gas atmosphere for 90 seconds to cure the coating film. Subsequently, the lens was further heated at 110°C for 1 hour to prepare a photochromic laminate having a photochromic layer.
• [1] Maximum Absorption Wavelength (λmax): The maximum absorption wavelength after color development, measured using a spectrophotometer (instantaneous multichannel photodetector MCPD3000) manufactured by Otsuka Electronics Co., Ltd. was used as an indicator for the color tone during the color development. • [2] 23°C Color Optical Density (A23): A difference between an absorbancy measured after light irradiation at 23°C for 300 seconds {ε(300)} and an absorbancy without light irradiation ε(0) at the maximum absorption wavelength was used as an indicator for the color optical density. […] 23°C color fading half-life [τ1/2 (sec.)]: A time required for the absorbancy of the sample at the maximum absorption wavelength to decrease to 1/2 of {ε(300)-ε(0)} when the light irradiation was terminated after the light irradiation at 23°C for 300 seconds, was used as an indicator for the color fading speed. The shorter this time, the higher the color fading speed. • [4] Residual rate (A120/A0×100): The obtained photochromic plastic lens was subjected to accelerated deterioration using a xenon weather meter X25 manufactured by Suga Test Instruments Co., Ltd. for 120 hours. Subsequently, the color optical density was evaluated before and after the test, then a color optical density before the test (A0) and a color optical density after the test (A120) were measured, and a ratio (A120/A0) was defined as a residual rate. The residual rate was used as an indicator for a color developing durability. The higher the residual rate, the higher the color developing durability. […]

The nature of data set [2]: Photochromic properties of photochromic cured product prepared by kneading method. The following applies: 0.106 mmol per 100 g monomer; for A23: 1 mm cured product, 23°C color optical density ε(300)-ε(0); for Maximum absorption wavelength: 1 mm thiourethane cured product, after color development. On the procedure: (§1) • [1] Maximum Absorption Wavelength (λmax): The maximum absorption wavelength after color development, measured using a spectrophotometer (instantaneous multichannel photodetector MCPD3000) manufactured by Otsuka Electronics Co., Ltd. was used as an indicator for the color tone during the color development. • [2] 23°C Color Optical Density (A23): A difference between an absorbancy measured after light irradiation at 23°C for 300 seconds {ε(300)} and an absorbancy without light irradiation ε(0) at the maximum absorption wavelength was used as an indicator for the color optical density. […] 23°C color fading half-life [τ1/2 (sec.)]: A time required for the absorbancy of the sample at the maximum absorption wavelength to decrease to 1/2 of {ε(300)-ε(0)} when the light irradiation was terminated after the light irradiation at 23°C for 300 seconds, was used as an indicator for the color fading speed. The shorter this time, the higher the color fading speed. • [4] Residual rate (A120/A0×100): The obtained photochromic plastic lens was subjected to accelerated deterioration using a xenon weather meter X25 manufactured by Suga Test Instruments Co., Ltd. for 120 hours. Subsequently, the color optical density was evaluated before and after the test, then a color optical density before the test (A0) and a color optical density after the test (A120) were measured, and a ratio (A120/A0) was defined as a residual rate. The residual rate was used as an indicator for a color developing durability. The higher the residual rate, the higher the color developing durability. The results of Examples 26, 50, and Comparative Examples 1 to 8 are summarized in Table 1, and the results of Examples 27 to 49 are summarized in Tables 2 and 3.
(§2) First, the photochromic compound obtained in Example 1, additives, and a polymerizable compound were mixed to obtain a curable composition.
(§3) As the polymerizable compound, a combination of the following polymerizable monomers was used. • 1,3-bis(isocyanatomethyl)cyclohexane: 36.7 parts by mass Pentaerythritol tetrakis(3-mercaptopropionate): 39.4 parts by mass • Polyoxyethylene polyoxypropylene lauryl ether (Wonder Surf 140 manufactured by Aoki Oil Industrial Co., Ltd.): 17.4 parts by mass • 1-decanethiol: 2.8 parts by mass • RX-1 adjusted according to the method described in Patent Document 13: 3.8 parts by mass
(§4) Note that the photochromic compound was added to the curable composition so that the amount of the photochromic compound was 0.106 mmol based on 100 g of the total amount of the polymerizable monomer. The following additives were used: Dimethyltin dichloride • : 0.05 part by mass • Irganox 245: 0.1 part by mass • 2-ethylhexyl 4-methoxycinnamate: 0.6 part by mass
(§5) The prepared curable composition was thoroughly defoamed, then injected into a glass mold having a 1 mm gap, and polymerized by cast polymerization. The polymerization was carried out in an air furnace while gradually raising the temperature from 27°C to 120°C over 18 hours. After the polymerization, the cured product was removed from the glass mold to obtain a photochromic cured product having a thickness of 1 mm. The obtained photochromic cured product was evaluated in the same manner as in Example 26.
(§6) (Examples 85 to 99, and Comparative Example 14 to 18) Photochromic cured products were prepared using photochromic compounds presented in Tables 6 and 7 in the same manner as in Example 84. The results of Examples 84 and 85 and Comparative Examples 14 to 18 are summarized in Table 6, and the results of Examples 86 to 99 are summarized in Table 7.

The nature of data set [3]: Accelerated deterioration (xenon weather meter X25, 120 hours) of photochromic cured product prepared by kneading method. The following applies: 1 mm cured product, 0.106 mmol per 100 g monomer, A120/A0×100 after 120 hours xenon weather meter. The procedure: as §1, §2, §3, §4, §5, §6

On to `CCCC1(CCC)c2cc(OC)ccc2-c2c1c1c(c3cc(OC)ccc23)OC(c2ccc(OC)cc2)(c2ccc(N(C)c3ccccc3)cc2)C=C1` (centres unmarked) [Example 3], for which the values for the Residual rate in data set [1] and in data set [3] were 55% and 61%, respectively. For the same compound, the values for the A23 in data set [2] and in data set [2] (listed as Formula (46)) were 0.59 - and 1.16 -, respectively. Moreover, the Maximum absorption wavelength in data set [2] was 472 nm; in data set [2] (listed as Formula (46)), 619 nm.

As to `CCCC1(CCC)c2ccccc2-c2c1c1c(c3cc(OC)c(-c4ccc(OC)cc4OC)cc23)OC(c2ccc(N(C)c3ccccc3)cc2)(c2ccc(OC)c(F)c2)C=C1` (centres unmarked) [Example 7], the figures for the Residual rate in data set [1] and in data set [3] were 61% and 68%, respectively. Moreover, the A23 in data set [2] is given as 0.75 -; in data set [2] (listed as Formula (55)), 0.99 -. Also, the Maximum absorption wavelength is recorded as 499 nm in data set [2] and 610 nm in data set [2] (listed as Formula (55)).

On to `COc1ccc(C2(c3ccc(N(C)c4ccccc4)cc3)C=Cc3c4c(c5cc(-c6ccc(N7CCOCC7)cc6)c(OC)cc5c3O2)-c2ccccc2C4(C)C)cc1` (centres unmarked) [Example 1], for which the Residual rate stood at 65% in data set [1] and 72% in data set [3]. Further, the results for the A23 in data set [2] and in data set [2] (listed as Formula (37)) were 0.96 - and 1.06 -, respectively. Besides, the values for the Maximum absorption wavelength in data set [2] and in data set [2] (listed as Formula (37)) were 503 nm and 610 nm, respectively.

Turning to `CCN(c1ccc(OC)cc1)c1ccc(C2(c3ccc(OC)cc3)C=Cc3c4c(c5cc(-c6ccc(N7CCOCC7)cc6)c(OC)cc5c3O2)-c2ccccc2C4(C)C)cc1` (centres unmarked) [Example 25], the Residual rate was 63% in data set [1] and 68% in data set [3]. The A23 in data set [2] was 0.88 -; in data set [2] (listed as Formula (88)) it was 0.96 -. The Maximum absorption wavelength in data set [2] was 505 nm; in data set [2] (listed as Formula (88)), 613 nm.

As for `CCCCN(c1ccccc1)c1ccc(C2(c3ccc(C)cc3)C=Cc3c4c(c5cc(N6CCOCC6)c(OC)cc5c3O2)-c2ccccc2C4(CC)CC)cc1` (centres unmarked) [Example 10], the Residual rate worked out at 60% in data set [1], 64% in data set [1] (listed as Formula (62)), 68% in data set [3] and 70% in data set [3] (listed as Formula (62)). In addition, the A23 is 1.41 - in data set [2] and 1.09 - in data set [2] (listed as Formula (62)). In addition, the Maximum absorption wavelength in data set [2] came out at 519 nm; in data set [2] (listed as Formula (62)), 600 nm.

In the case of `CCCC1(CCC)c2ccccc2-c2c1c1c(c3cc(OC)c(-c4ccc(OC)cc4OC)cc23)OC(c2ccc(C)cc2)(c2ccc(N(C)c3ccccc3)cc2)C=C1` (centres unmarked) [Example 19], the Residual rate in data set [1] turned out to be 64%; in data set [3], 73%. Moreover, the A23 in data set [2] is on record as 0.87 -; in data set [2] (listed as Formula (80)), 1.15 -. Besides, the figures for the Maximum absorption wavelength in data set [2] and in data set [2] (listed as Formula (80)) were 496 nm and 610 nm, respectively.

Regarding `COCCC1(CCOC)c2ccccc2-c2c1c1c(c3cc(OC)c(-c4ccc(N(c5ccccc5)c5ccccc5)cc4)cc23)OC(c2ccc(Oc3ccccc3)cc2)(c2ccc(N(C)c3ccccc3)cc2)C=C1` (centres unmarked) [Example 23], the Residual rate in data set [1] was 60%.

Turning to `COc1ccc(N(C)c2ccc(C3(c4ccc(CCO[Si](C)(C)CC[Si](O[Si](C)(C)C)(O[Si](C)(C)C)O[Si](C)(C)C)cc4)C=Cc4c5c(c6cc(N(C)c7ccccc7)c(OC)cc6c4O3)-c3ccc(C(F)(F)F)cc3C53CCC(C)(C)CC3)cc2)cc1` (centres unmarked) [Example 60], the figures for the Residual rate in data set [1] and in data set [1] (listed as Formula (121)) were 62% and 64%, respectively.

Turning to `CCCCOCCC1(CCOCCCC)c2ccccc2-c2c1c1c(c3cc(OC)c(NC(=O)c4ccccc4)cc23)OC(c2ccc(N(C)c3ccccc3)cc2)(c2ccc(OC)c(F)c2)C=C1` (centres unmarked) [Example 53], the results for the Residual rate in data set [1] and in data set [1] (listed as Formula (95)) were 58% and 60%, respectively.

Take `COCCCCC1(CCCCOC)c2cc(Sc3c(C)cccc3C)ccc2-c2c1c1c(c3cc(OC)ccc23)OC(c2ccc(OC)cc2)(c2ccc(N(C)c3ccc(OC)cc3)cc2)C=C1` (centres unmarked) [Example 11]: the Residual rate in data set [1] is on record as 60%.
